From US7037502B2, “Peptide with the amino acid sequence of KVLDGQDP having anti-inflammatory properties” (priority 2001, dated 2006)
“Also recorded” adds a separate entry of the source.

Assays:
[1] = molecular target: T1, PLA2 (Bovine pancreas, EC 3.1.1.4) (Bos taurus, UniProt P00593); experiment: Inhibitory effect of synthetic peptides on PLA2 in vitro ([14C]-arachidonic acid release); format: biochemical; details: peptides 1×10^−8 M, preincubated 15 min at 37° C.; compared with the peptides known as PLA2 inhibitors
T1 construct: 0.18 Unit PLA2 (Bovine pancreas, EC 3.1.1.4, Sigma); purchased Sigma; host or cells: bovine pancreas
T1 sequence (P00593 23-145): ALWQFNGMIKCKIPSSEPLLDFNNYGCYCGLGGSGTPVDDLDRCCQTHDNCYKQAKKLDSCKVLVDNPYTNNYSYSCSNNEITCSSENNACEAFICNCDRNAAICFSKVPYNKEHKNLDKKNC
Excerpt: It has been examined whether synthetic peptides contain inhibitory effect on PLA2 activity. A established PLA2 assay method was used to determine the enzymatic activity by measuring the release [^14C]-arachidonic acid from 1-acyl-2-[1-^14C]arachidonic acid-glycerophospho-ethanolamine (Biochem. Pharmacol. 54, 259–268, 1997). To determine the inhibitory activity, 0.18 Unit PLA2 (Bovine pancreas, EC 3.1.1.4, Sigma; 1.0 unit will hydrolyze […] of L-phosphatidylcholine to L-lysophosphatidylcholine and a fatty acid per min. at pH 8.0 at 37° C.) was preincubated for 15 minutes with the synthetic peptides (1×10^−8 M) at 37° C. in […] before adding 1-acyl-2-[1-^14C]arachidonic acid-glycerophospho-ethanolamine. The control was also PLA2 preincubated with buffer. After pre-incubation, PLA2 activity was assayed using sonicated liposomes, prepared as established method (Biochem. Biophys. Acta. 1083, 80–88, 1991). […] of 1-acyl-2-[1-^14C]arachidonic acid-glycerophospho-ethanolamine (about 2×10^5 dpm) was added in pre-incubated mixture, and incubated for 1 hr at 37° C. […]
For inhibitory test of the peptides given, each value is the mean of data from three separate experiments (S.D.<10%). The value of PLA2 activity incubated without peptides was determined as 100% PLA2 activity that is 5.57 pmole arachidonyl/hr. % Inhibition was shown in FIG. 1.

[2] = test system: allergic conjunctivitis to ragweed (Ambrosia trifida); experiment: Allergic conjunctivitis to ragweed in guinea pig: clinical scores (conjunctival edema and redness); format: in vivo, Hartley female guinea pig; details: for Statistical evaluation of clinical scores (Mann-Whitney test), P compared to Dexamethasone / Statistical evaluation of clinical scores (Mann-Whitney test), P compared to Livostine / Statistical evaluation of clinical scores (Mann-Whitney test), P compared to No treatment group: conjunctival edema and redness score 0-4+, 20 min after allergen challenge, 12 eyes per group, eye drops
Description: The peptides of the present invention were analyzed in experimental model of allergic conjunctivitis to ragweed (giant ragweed; Ambrosia trifida) in guinea pig. Hartley strain of guinea pig was selected according to previous reports of conjunctival anaphylaxis (Calonge M., et al., Acta Ophthalmol 68; 470–476, 1990) and females were chosen based on the sex dimorphism of ocular mucosal immunity with the protective role of male hormones (Saruya S., et al., Act Soc Ophthalmol Jap 72; 833–845, 1968). The conjunctival redness and edema are main signs of seasonal allergic conjunctivitis and eosionphil infiltration is the hallmark of the conjunctival histology in patients with allergic conjunctivitis (Abelson M B., et al., Arch Ophthalmol. 101; 555–556, 1983; Butrus S I., et al., Int. Ophthalmol. Clin. 28; 324–328, 1988) 86 Hartley female guinea pigs, 200–250 g were housed in the animal facilities of the Asan Institute for Life Sciences (Korea), given guinea pig chow and water ad libitum, and cared for in accordance with the Declaration of Helsinki and the National Institute of Health Guide to the Care and Use of the Laboratory Animals (Korea). […] On day 15, immunized guinea pigs were divided 14 groups, 6 for each group. 11 anti-inflammatory peptides including new recombinants, dexamethasone eye drop (Maxidex, 0.1% dexamethasone, Alcon) and anti-histamine eye drop (Livostin, levocabastine, Janssen) were used for 13 groups, and no treatment for one group. Normal controls were employed as 6 non-immunized and non-treated guinea pigs. […] All the procedures were followed experimental model of allergic conjunctivitis described by Merayo-Lloves et al (Experimental model of allergic conjunctivitis to ragweed in guinea pig. Curr. Eye Res. 14; 487–494, 1995). Anti-inflammatory peptides were resolved in sterile saline (100 μmol/40 μl concentration). All peptides and dexamethasone eye solutions were challenged 3 hour prior to the last pollen application on day 15, 10 minutes after pollen application, and 4 times thereafter at the 3 hour interval. Conjunctival edema and redness were judged in room light and under an operating microscope (Zeiss, Germany). The evaluation was performed in a masked fashion at 20 min after allergen challenge and each clinical sign was scored on a scale 0–4+ (0 absent, 1+ minimal, 2+ mild, 3+ moderate, 4+ severe), adapted for guinea pig from previous report (Merayo-Lloves et al: Experimental model of allergic conjunctivitis to ragweed in guinea pig. Curr. Eye Res. 14; 487–494, 1995). Clinical scores of each group (12 eyes in each group) were analyzed.

## KVLDGQDP [Peptide R2, synthetic peptide of the invention]
[1]
  PLA2 activity (FIG. 1), result in words: significantly reduced
[2]
  Statistical evaluation of clinical scores (Mann-Whitney test), P compared to Dexamethasone: 0.796
  Statistical evaluation of clinical scores (Mann-Whitney test), P compared to Livostine: 0.515
  Statistical evaluation of clinical scores (Mann-Whitney test), P compared to No treatment group: 0.000
[2]; n=12, P<0.01, SD<10%, Mann-Whitney test, listed as SEQ ID NO:2
  Clinical signs (conjunctival redness and edema scores), result in words: statistically significant difference from other groups; also recorded: most effective

## KVLDPVKG [Peptide R1, synthetic peptide of the invention]
[1]
  PLA2 activity (FIG. 1), result in words: significantly reduced
[2]
  Statistical evaluation of clinical scores (Mann-Whitney test), P compared to Dexamethasone: 0.000
  Statistical evaluation of clinical scores (Mann-Whitney test), P compared to Livostine: 0.000
  Statistical evaluation of clinical scores (Mann-Whitney test), P compared to No treatment group: 0.965
